Test results as given in US20100099614A1, “Antimicrobial Peptides and Methods of Use” (priority 2008, published 2010).
In brackets after ≈: the same amount, converted by molar mass. Where two headings read alike, the source gives them in different places.

Assays:
[1] = system: Aspergillus nidulans (AZN 2867); test: Antifungal activity (MIC50/MIC90); assay type: cell-based
Text: (§1) The filamentous fungal and yeast strains used in this study were either purchased from American Type Culture Collection, Manassas, Va. (ATCC) or were generous gifts from various institutions: Aspergillus nidulans (AZN 2867), Absidia corymbifera (clinical isolate), Rhizomucor spp. (clinical isolate), Rhizopus microsporus (clinical isolate), Rhizopus oryzae (AZN 8892), Scedosporium prolificans (clinical isolate), Candida albicans (ATCC 24433).
(§2) Fungal spores (final concentration 10^4 spores/ml) were suspended in ½ Potato Dextrose Broth (Difco), and the yeast strains were suspended at a starting A600=0.001 in the yeast complete medium YPG (1% yeast extract, 1% peptone, 2% glucose). The medium was supplemented with tetracycline (10 μg/ml) and cefotaxim (100 μg/ml), and dispensed by aliquots of 80 μl into wells of a microplate containing 20 μl of either water or the sample to be analyzed. Growth of fungi and yeasts was evaluated after 24 h at 30° C. by light microscopy and after 48 h by measuring the culture absorbance at 595 nm using a microplate reader. Under conditions where the antifungal assay was performed in the presence of salt, the ½ Potato Dextrose Broth medium was prepared in phosphate-buffered saline, 137 mM NaCl.
(§3) The procedure used for the determination of the minimal inhibitory concentration (MIC) was identical to that for the antifungal assay. The MIC values are expressed as the lowest peptide concentration that causes 90% or 50% growth inhibition. The fungicidal effects of the synthetic peptides in the MIC assay were verified by reinoculation of the yeasts in potato dextrose broth at the end of the incubation time.

[2] = system: Scedosporium prolificans (clinical isolate); test: Antifungal activity (MIC50/MIC90); assay type: cell-based
Text: as §1, §2, §3

[3] = system: Candida albicans (ATCC 24433); test: Antifungal activity (MIC50/MIC90); assay type: cell-based
Text: as §1, §2, §3

[4] = Helical structure by circular dichroism spectroscopy; assay type: physicochemical; settings: 222 nm
Protocol: The mean residue molar ellipticities of peptides were determined by circular dichroism (CD) spectroscopy, using a Jasco J-810 spectropolarimeter (Easton, Md.) at 5° C. under benign (non-denaturing) conditions (50 mM NaH2PO4/Na2HPO4/100 mM KCl, pH 7.0), hereafter referred to as benign buffer, as well as in the presence of an α-helix inducing solvent, 2,2,2-trifluoroethanol, TFE, (50 mM NaH2PO4/Na2HPO4/[…], pH 7.0 buffer/50% TFE). A 10-fold dilution of an approximately […] stock solution of the peptide analogs was loaded into a 0.1 cm quartz cell and its ellipticity scanned from 195 to 250 nm. The values of molar ellipticities of the peptide analogs at a wavelength of 222 nm were used to estimate the relative α-helicity of the peptides.

Gram-negative bacteria = test: Antibacterial activity (MIC), microtiter dilution; assay type: cell-based
Protocol: MICs were determined by a standard microtiter dilution method in Mueller Hinton Broth (MHB). Serial dilutions of the 10× compound were added to the microtiter plates in a volume of 10 μL followed by 90 μL of bacteria for an inoculum of 5×10^5 colony-forming units (CFU)/mL. The plates were incubated at 37° C. for 24 h, and the MICs were determined as the lowest peptide concentration that inhibited growth. […]
Alternatively; minimal inhibitory concentrations were determined using a standard microtiter dilution method in a Mueller-Hinton (MH) medium. Briefly, cells were grown overnight at 37° C. in MH broth and diluted in the same medium. Serial dilutions of the peptides were added to the microtiter plates in a volume of 100 μl followed by 10 μl of bacteria for an initial cell concentration of 1×10^5 CFU/ml. Plates were incubated at 37° C. for 24 hours and MICs determined as the lowest peptide concentration that inhibited growth.

[5] = system: Absidia corymbifera (clinical isolate); settings: mean of 2 sets
[6] = system: Rhizomucor spp. (clinical isolate)
[7] = system: Rhizopus oryzae (AZN 8892)
[8] = system: Rhizopus microsporus (clinical isolate)
[9] = system: Mycobacterium tuberculosis strain H37Rv

CC[C@@H](C)[C@@H](NC(=O)[C@@H](C)NC(=O)[C@@H](CCCCN)NC(=O)[C@@H](CC(C)C)NC(=O)[C@@H](C)NC(=O)[C@H](NC(=O)[C@@H](Cc1c[nH]cn1)NC(=O)[C@@H](CC(C)C)NC(=O)[C@H](NC(=O)[C@H](NC(=O)[C@@H](CCCCN)NC(=O)[C@@H](CCCCN)NC(=O)[C@@H](C)NC(=O)[C@@H](CO)NC(=O)[C@@H](CCCCN)NC(=O)[C@@H](Cc1ccccc1)NC(=O)[C@H](NC(=O)[C@@H](CCCCN)NC(=O)[C@@H](CC(C)C)NC(=O)[C@@H](Cc1ccccc1)NC(=O)[C@@H](CO)NC(=O)[C@@H](CCCCN)NC(=O)[C@@H](Cc1c[nH]c2ccccc12)NC(=O)[C@@H](CCCCN)NC(C)=O)[C@H](C)O)[C@H](C)O)C(C)C)[C@H](C)O)C(=O)N[C@H](CO)C(=O)N[C@H](CO)C(N)=O [D1]
A. nidulans MIC50 ([1]; inhibits 50% of fungal growth): 9.4 µg/mL | A. nidulans MIC90 ([1]; inhibits 90% of fungal growth): 50.0 µg/mL | S. prolificans MIC50 ([2]; inhibits 50% of fungal growth): 50.0 µg/mL | S. prolificans MIC90 ([2]; inhibits 90% of fungal growth): 50.0 µg/mL | C. albicans MIC50 ([3]; inhibits 50% of fungal growth): 50.0 µg/mL | C. albicans MIC90 ([3]; inhibits 90% of fungal growth): 50.0 µg/mL | 50% TFE [θ]222 (mean residue molar ellipticity) ([4]; benign buffer containing 50% trifluoroethanol): 34,100 deg cm^2/dmol | Benign [θ]222 (mean residue molar ellipticity) ([4]; benign conditions (100 mM KCl, 50 mM NaH2PO4/Na2HPO4, pH 7.0)): 1,150 deg cm^2/dmol | fold less active than D4 (Ascomycota fungi; Ascomycota fungi): 5 fold | Fold improvement in antifungal activity (geometric mean data) compared to that of D4, Ascomycota fungi (Ascomycota fungi; relative to D4): 0.2 fold | GM (geometric mean of the MIC50 values), Ascomycota fungi (Ascomycota fungi; three Ascomycota strains): 28.6 µg/mL | MIC E. coli C498 UB1005 (Gram-negative bacteria; E. coli C498 UB1005, MH medium, 37° C., 24 h): 2 µg/mL (≈ 0.669 µM) | MIC E. coli C857 DH5a (Gram-negative bacteria; E. coli C857 DH5a, MH medium, 37° C., 24 h): 2 µg/mL (≈ 0.669 µM) | MIC E. coli UB1005 (Gram-negative bacteria; E. coli UB1005, MH medium, 37° C., 24 h): 4 µg/mL (≈ 1.34 µM) | MIC P. aeruginosa PAO1 (Gram-negative bacteria; P. aeruginosa PAO1, Mueller-Hinton medium, 37° C., 24 h, four sets of determinations): 8 µg/mL (≈ 2.68 µM) | MIC S. ryphimurium 14208S (Gram-negative bacteria; S. ryphimurium 14208S, MH medium, 37° C., 24 h): 32 µg/mL (≈ 10.7 µM) | MIC S. ryphimurium C587 14208S (Gram-negative bacteria; S. ryphimurium C587 14208S, MH medium, 37° C., 24 h): 4 µg/mL (≈ 1.34 µM) | Fold improvement in antimicrobial activity (geometric mean data) compared to that of D4, Gram-negative bacteria (Gram-negative bacteria; relative to D4): 4.5 fold | MIC GM (geometric mean of the MIC values), Gram-negative bacteria (Gram-negative bacteria; six Gram-negative strains, 128 μg/mL used where no activity at 64 μg/mL): 5.0 µg/mL | GM (geometric mean of the MIC50 values), Zygomycota fungi (Zygomycota fungi; four Zygomycota strains): 9.1 µg/mL | Fold improvement in antifungal activity (geometric mean data) compared to that of D4, Zygomycota fungi (Zygomycota fungi; relative to D4): 5.5 fold | A. corymbifera MIC50 ([5]; peptide concentration that inhibits 50% of fungal growth): 12.5 µg/mL | A. corymbifera MIC90 ([5]; peptide concentration that inhibits 90% of fungal growth): 12.5 µg/mL | Rhizomucor spp. MIC50 ([6]; inhibits 50% of fungal growth): 4.7 µg/mL | Rhizomucor spp. MIC90 ([6]; inhibits 90% of fungal growth): 6.3 µg/mL | R. oryzae MIC50 ([7]; inhibits 50% of fungal growth): 18.8 µg/mL | R. oryzae MIC90 ([7]; inhibits 90% of fungal growth): 25.0 µg/mL | R. micosporus MIC50 ([8]; inhibits 50% of fungal growth): 6.3 µg/mL | R. micosporus MIC90 ([8]; inhibits 90% of fungal growth): 12.5 µg/mL | MIC B. subtilus C626 (Gram-positive bacteria; B. subtilus C626, MH medium, 37° C., 24 h): 32 µg/mL (≈ 10.7 µM) | MIC B. subtilus C971 ATCC6633 (Gram-positive bacteria; B. subtilus C971 ATCC6633, MH medium, 37° C., 24 h): 2 µg/mL (≈ 0.669 µM) | MIC E. jaecalis C625 (Gram-positive bacteria; E. jaecalis C625, MH medium, 37° C., 24 h): 32 µg/mL (≈ 10.7 µM) | MIC S. aureus C622 ATCC3923 (Gram-positive bacteria; S. aureus C622 ATCC3923, MH medium, 37° C., 24 h): 64 µg/mL (≈ 21.4 µM) | MIC S. aureus K147 (Gram-positive bacteria; S. aureus K147, MH medium, 37° C., 24 h): 64 µg/mL (≈ 21.4 µM) | MIC S. epidermidis C623 (Gram-positive bacteria; S. epidermidis C623, MH medium, 37° C., 24 h): 4 µg/mL (≈ 1.34 µM) | Fold improvement in antimicrobial activity (geometric mean data) compared to that of D4, Gram-positive bacteria (Gram-positive bacteria; relative to D4): 0.9 fold | MIC GM (geometric mean of the MIC values), Gram-positive bacteria (Gram-positive bacteria; six Gram-positive strains): 18.0 µg/mL | Anti-tuberculosis activity MIC [9]: 70.7 ± 14.8 µg/mL | Anti-tuberculosis activity to H37Rv strain Fold (compared to D4) [9]: 2.3 fold | Anti-tuberculosis activity MIC ([9]; H37Rv): 23.6 ± 5.0 µM | Anti-tuberculosis activity to H37Rv strain MIC ([9]; H37Rv): 23.6 µM | Anti-tuberculosis activity to H37Rv strain MIC ([9]; further experiments, […]): 70.7 µg/mL
